According to ChEMBL document CHEMBL1201862, “PubChem BioAssay data set” (2004):
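Grown in 96-well plates, cells were treated for 48 hours with each compound at five concentrations. Insufficient inhibition: endpoint recorded as highest concentration tested. GI50 marks 50% less growth.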 The source made the active and inactive calls. Cut-off read from the data, not from the text of the source: active = GI50 up to about 1.1 µM and inactive = higher.

Assays:
Assay in all cases: inhibition of tumour cell growth, NCI panel, 48 h
CCRF-CEM = system: CCRF-CEM
HCT-116 = system: HCT-116
UACC-257 = system: UACC-257
A549 = system: A549
DMS-273 = system: DMS-273
K562 = system: K562
SK-MEL-5 = system: SK-MEL-5
OVCAR-3 = system: OVCAR-3
DLD-1 = system: DLD-1
OVCAR-8 = system: OVCAR-8
SK-MEL-28 = system: SK-MEL-28
SF-268 = system: SF-268
Malme-3M = system: Malme-3M
KM12 = system: KM12
SF-295 = system: SF-295
ACHN = system: ACHN
MOLT-4 = system: MOLT-4
COLO 205 = system: COLO 205
HOP-62 = system: HOP-62
A498 = system: A498
786-0 = system: 786-0
HCC 2998 = system: HCC 2998
RXF 393 = system: RXF 393
TK-10 = system: TK-10
NCI-H460 = system: NCI-H460
NCI-H23 = system: NCI-H23
SNB-78 = system: SNB-78
HL-60 = system: HL-60
M19-MEL = system: M19-MEL
EKVX = system: EKVX
SW-620 = system: SW-620
SF-539 = system: SF-539
NCI-H522 = system: NCI-H522
SK-OV-3 = system: SK-OV-3
SR = system: SR
CAKI-1 = system: CAKI-1
KM-20L2 = system: KM-20L2
IGROV-1 = system: IGROV-1
HOP-18 = system: HOP-18
XF498 = system: XF498
SN12C = system: SN12C
HOP-92 = system: HOP-92
SNB-19 = system: SNB-19
UO-31 = system: UO-31
OVCAR-4 = system: OVCAR-4
SNB-75 = system: SNB-75
NCI-H226 = system: NCI-H226
HT-29 = system: HT-29
RPMI-8226 = system: RPMI-8226
OVCAR-5 = system: OVCAR-5
LOX IMVI = system: LOX IMVI
UACC-62 = system: UACC-62
M14 = system: M14
U-251 = system: U-251
LXFL 529 = system: LXFL 529
SK-MEL-2 = system: SK-MEL-2
HCT-15 = system: HCT-15

CC1=Cc2cccc(C)c2C(=O)C1=O [O-HIBISCANONE] was tested, and the GI50 (CCRF-CEM) was 0.379 µM (active), the GI50 (HCT-116) was 2.73 µM (inactive) and the GI50 (UACC-257) was 2.16 µM (inactive). The GI50 (A549) was 6.81 µM (inactive), the GI50 (DMS-273) was 19.9 µM (inactive) and the GI50 (K562) was 0.617 µM (active). For the same molecule, the GI50 (SK-MEL-5) was 2.28 µM (inactive), the GI50 (OVCAR-3) was 4.37 µM (inactive) and the GI50 (DLD-1) was 2.13 µM (inactive). For the same molecule, the GI50 (OVCAR-8) was 5.85 µM (inactive), the GI50 (SK-MEL-28) was 16 µM (inactive) and the GI50 (SF-268) was 11.3 µM (inactive). For the same molecule, the GI50 (Malme-3M) was 1.8 µM (inactive), the GI50 (KM12) was 4.71 µM (inactive) and the GI50 (SF-295) was 5.14 µM (inactive). The GI50 (ACHN) was 5.12 µM (inactive), the GI50 (MOLT-4) was 0.52 µM (active) and the GI50 (COLO 205) was 1.91 µM (inactive). The GI50 (HOP-62) was 17.5 µM (inactive), the GI50 (A498) was 17.1 µM (inactive) and the GI50 (786-0) was 2.88 µM (inactive). The GI50 (HCC 2998) was 14.6 µM (inactive), the GI50 (RXF 393) was 4.66 µM (inactive) and the GI50 (TK-10) was 2.39 µM (inactive). For the same molecule, the GI50 (NCI-H460) was 20.5 µM (inactive), the GI50 (NCI-H23) was 11.1 µM (inactive) and the GI50 (SNB-78) was 26 µM (inactive). The GI50 (HL-60) was 0.481 µM (active), the GI50 (M19-MEL) was 7.67 µM (inactive) and the GI50 (EKVX) was 8.11 µM (inactive). For the same molecule, the GI50 (SW-620) was 1.28 µM (inactive), the GI50 (SF-539) was 6.56 µM (inactive) and the GI50 (NCI-H522) was 4.72 µM (inactive). The GI50 (SK-OV-3) was 18.5 µM (inactive), the GI50 (SR) was 0.26 µM (active) and the GI50 (CAKI-1) was 16.5 µM (inactive). For the same molecule, the GI50 (KM-20L2) was 18.9 µM (inactive), the GI50 (IGROV-1) was 15.6 µM (inactive) and the GI50 (HOP-18) was 1.42 µM (inactive). The GI50 (XF498) was 5.2 µM (inactive), the GI50 (SN12C) was 19.5 µM (inactive) and the GI50 (HOP-92) was 1.49 µM (inactive). For the same molecule, the GI50 (SNB-19) was 19.8 µM (inactive), the GI50 (UO-31) was 13.9 µM (inactive) and the GI50 (OVCAR-4) was 5.31 µM (inactive). The GI50 (SNB-75) was 15.8 µM (inactive), the GI50 (NCI-H226) was 15.8 µM (inactive) and the GI50 (HT-29) was 2.79 µM (inactive). The GI50 (RPMI-8226) was 1.06 µM (active), the GI50 (OVCAR-5) was 19 µM (inactive) and the GI50 (LOX IMVI) was 8.77 µM (inactive). The GI50 (UACC-62) was 5.58 µM (inactive), the GI50 (M14) was 4.67 µM (inactive) and the GI50 (U-251) was 10.8 µM (inactive). For the same molecule, the GI50 (LXFL 529) was 2.11 µM (inactive), the GI50 (SK-MEL-2) was 17.3 µM (inactive) and the GI50 (HCT-15) was 6.11 µM.
c1ccc(COC2(OCc3ccccc3)CC3OC2C2NN=NC32)cc1 (configuration not stated) was tested, and the GI50 (CCRF-CEM) was 11.3 µM (inactive), the GI50 (UACC-257) was 18.5 µM (inactive) and the GI50 (A549) was 57.1 µM (inactive). For the same molecule, the GI50 (DMS-273) was 21.2 µM (inactive), the GI50 (K562) was 15.6 µM (inactive) and the GI50 (SK-MEL-5) was 17.1 µM (inactive). The GI50 (OVCAR-3) was 18.3 µM (inactive), the GI50 (DLD-1) was 15.8 µM (inactive) and the GI50 (SK-MEL-28) was 18.8 µM (inactive). The GI50 (SF-268) was 22.1 µM (inactive), the GI50 (Malme-3M) was 22.4 µM (inactive) and the GI50 (KM12) was 28.7 µM (inactive). The GI50 (SF-295) was 23.1 µM (inactive), the GI50 (ACHN) was > 100 µM (inactive) and the GI50 (MOLT-4) was 12.5 µM (inactive). For the same molecule, the GI50 (COLO 205) was 37.7 µM (inactive), the GI50 (HOP-62) was 41.9 µM (inactive) and the GI50 (A498) was > 100 µM (inactive). For the same molecule, the GI50 (786-0) was 20 µM (inactive), the GI50 (HCC 2998) was > 10 µM (inactive) and the GI50 (RXF 393) was 41.7 µM (inactive). For the same molecule, the GI50 (NCI-H460) was 46.1 µM (inactive), the GI50 (NCI-H23) was 17.5 µM (inactive) and the GI50 (SNB-78) was 28.7 µM (inactive). The GI50 (HL-60) was 11.1 µM (inactive), the GI50 (M19-MEL) was 17.7 µM (inactive) and the GI50 (SW-620) was 12.5 µM (inactive). For the same molecule, the GI50 (SF-539) was 22.1 µM (inactive), the GI50 (SK-OV-3) was > 100 µM (inactive) and the GI50 (CAKI-1) was 44 µM (inactive). For the same molecule, the GI50 (KM-20L2) was 54.6 µM (inactive), the GI50 (IGROV-1) was 28.6 µM (inactive) and the GI50 (HOP-18) was 36.2 µM (inactive). For the same molecule, the GI50 (XF498) was 19.3 µM (inactive), the GI50 (SN12C) was > 10 µM (inactive) and the GI50 (HOP-92) was 19.6 µM (inactive). For the same molecule, the GI50 (UO-31) was 29.7 µM (inactive), the GI50 (OVCAR-4) was 17.9 µM (inactive) and the GI50 (SNB-75) was 16.9 µM (inactive). For the same molecule, the GI50 (NCI-H226) was 18.1 µM (inactive), the GI50 (HT-29) was 20.8 µM (inactive) and the GI50 (RPMI-8226) was 13.7 µM (inactive). The GI50 (OVCAR-5) was > 100 µM (inactive), the GI50 (LOX IMVI) was 16.8 µM (inactive) and the GI50 (UACC-62) was 21.3 µM (inactive). For the same molecule, the GI50 (M14) was 18.5 µM (inactive), the GI50 (U-251) was 18.1 µM (inactive) and the GI50 (LXFL 529) was 15.3 µM (inactive). The GI50 (SK-MEL-2) was > 10 µM (inactive) and the GI50 (HCT-15) was 26 µM.
